Source: patent US20130204033A1, “ANTIPROLIFERATIVE COMPOUNDS, CONJUGATES THEREOF, METHODS THEREFOR, AND USES THEREOF” (Medarex, Inc., priority 2009, published 2013)

Experiments:
Assay type in all cases: cell-based, human
786-O [1] = experiment: ATP luminescence proliferation assay, 786-O
Protocol: (§1) This example generally describes the procedures used to assay the antiproliferative activity of compounds of this invention or their conjugates. Human tumor cell lines were obtained from the American Type Culture Collection (ATCC), P.O. Box 1549, Manassas, Va. 20108, USA, and cultured according to instruction from the ATCC. Cells were seeded at 1.0×10^3 or 1.0×10^4 cells/well in 96-well plates for 3 h for ATP assays or ^3H thymidine assays, respectively. 1:3 serial dilutions of free (unconjugated) compounds or their conjugates were added to the wells. Plates were allowed to incubate for 24 to 72 h. The ^3H thymidine plates were pulsed with 1.0 μCi of ^3H-thymidine per well for the last 24 hours of the total incubation period, harvested, and read on a Top Count Scintillation Counter (Packard Instruments, Meriden, Conn.). ATP levels in the ATP plates were measured using the […]-GLO® Luminescent Cell Viability kit following the manufacturer's manual and read on a GLOMAX® 20/20 luminometer (both from Promega, Madison, Wis., USA). The EC50 values—the concentration at which an agent inhibits or reduces cell proliferation by 50% —were determined using PRISM™ software, version 4.0 (GraphPad Software, La Jolla, Calif., USA).
(§2) Using the ^3H thymidine or the ATP luminescence assay, or both, the activities of compounds of this invention were assayed against the following cancer cell lines: HCT-15 (colorectal cancer, multi-drug resistant (MDR)); Hep3B (liver cancer); LNCaP (prostate cancer, androgen receptor positive (AR^+)); MDA-MB-231 (breast cancer, estrogen receptor, progesterone receptor, and Her2 negative (triple negative)); A2058 (melanoma); U-87 MG (glioblastoma); NCI-H460 (NSCLC); A549 (NSCLC); HPAC (pancreatic cancer, primary); PC3 (prostate cancer, AR); BT474 (breast cancer, Her2 highly positive (Her2hi)); SKOV3 (ovarian cancer, Her2hi); 786-O (renal cancer); UO-31 (renal cancer, MDR); NCI-H740 (SCLC); DMS53 (SCLC); SK-BR3 (breast cancer, Her2hi); ZR-75 (breast cancer, estrogen receptor positive); OVCAR3 (ovarian cancer); HL-60 (APL); OVCAR8/Adr (ovarian cancer, MDR); CEM-Cl (ALL); Nomo-1 (AML); RPMI-8226 (MM)); Raji (lymphoma); SW-480 (colorectal cancer, metastatic); SW-620 (colorectal cancer); and H226 (lung cancer). (Not all compounds were assayed against all cell lines.)
(§3) FIGS. 12a and 12b show illustrative plots for ATP luminescence proliferation assays for a second set of compounds of this invention, against HL-60 and 786-O cells, respectively, with an incubation period of 72 h. FIGS. 12c and 12d show the plots for ^3H thymidine proliferation assays for the same set of compounds, again against HL-60 and 786-O cells, respectively, with a 72 h incubation period. In each instance, doxorubicin was used as a comparative compound.
(§4) Table 3 provides the data for the ATP luminescence proliferation assays, with an incubation period of 48, 72, or 96 h, as noted.

HL-60 [2] = experiment: 3H thymidine proliferation assay, HL-60; conditions: Homo sapiens, HL-60, read-out: EC50, HL-60, 3H thymidine method, 72 h incubation
Protocol: as §1, §2
(§5) Table 2 provides the data for proliferation assays using the ^3H thymidine method, with an incubation period of 72 h.

786-O [3] = experiment: 3H thymidine proliferation assay, 786-O; conditions: Homo sapiens, 786-0, read-out: EC50, 786-O, 3H thymidine method, 72 h incubation
Protocol: as §1, §2, §5

HL-60 [4] = experiment: ATP luminescence proliferation assay, HL-60
Protocol: as §1, §2, §3, §4

U-87 MG = experiment: 3H thymidine proliferation assay, U-87 MG; conditions: Homo sapiens, U-87 MG, read-out: EC50, U-87 MG, 3H thymidine method, 72 h incubation
Protocol: as §1, §2, §5

SKOV3 = experiment: 3H thymidine proliferation assay, SKOV3; conditions: Homo sapiens, SK-OV-3, read-out: EC50, SKOV3, 3H thymidine method, 72 h incubation
Protocol: as §1, §2, §5

Nomo-1 = experiment: 3H thymidine proliferation assay, Nomo-1; conditions: Homo sapiens, NOMO-1, read-out: EC50, Nomo-1, 3H thymidine method, 72 h incubation
Protocol: as §1, §2, §5

HPAC = experiment: 3H thymidine proliferation assay, HPAC; conditions: Homo sapiens, HPAC, read-out: EC50, HPAC, 3H thymidine method, 72 h incubation
Protocol: as §1, §2, §5

Raji = experiment: 3H thymidine proliferation assay, Raji; conditions: Homo sapiens, Raji, read-out: EC50, Raji, 3H thymidine method, 72 h incubation
Protocol: as §1, §2, §5

DMS53 = experiment: 3H thymidine proliferation assay, DMS53; conditions: Homo sapiens, DMS-53, read-out: EC50, DMS53, 3H thymidine method, 72 h incubation
Protocol: as §1, §2, §5

UO-31 = experiment: 3H thymidine proliferation assay, UO-31; conditions: Homo sapiens, UO-31, read-out: EC50, UO-31, 3H thymidine method, 72 h incubation
Protocol: as §1, §2, §5

PC3 = experiment: 3H thymidine proliferation assay, PC3; conditions: Homo sapiens, PC-3, read-out: EC50, PC3, 3H thymidine method, 72 h incubation
Protocol: as §1, §2, §5

BT474 = experiment: 3H thymidine proliferation assay, BT474; conditions: Homo sapiens, BT-474, read-out: EC50, BT474, 3H thymidine method, 72 h incubation
Protocol: as §1, §2, §5

A549 = experiment: 3H thymidine proliferation assay, A549; conditions: Homo sapiens, A549, read-out: EC50, A549, 3H thymidine method, 72 h incubation
Protocol: as §1, §2, §5

Hep3B = experiment: 3H thymidine proliferation assay, Hep3B; conditions: Homo sapiens, Hep3B, read-out: EC50, Hep3B, 3H thymidine method, 72 h incubation
Protocol: as §1, §2, §5

OVCAR3 [5] = experiment: 3H thymidine proliferation assay, OVCAR3; conditions: Homo sapiens, OVCAR-3, read-out: EC50, OVCAR3, 3H thymidine method, 72 h incubation
Protocol: as §1, §2, §5

H740 = experiment: 3H thymidine proliferation assay, H740; conditions: Homo sapiens, read-out: EC50, H740, 3H thymidine method, 72 h incubation
Protocol: as §1, §2, §5

LNCaP = experiment: 3H thymidine proliferation assay, LNCaP; conditions: Homo sapiens, LNCaP, read-out: EC50, LNCaP, 3H thymidine method, 72 h incubation
Protocol: as §1, §2, §5

RPMI-8226 = experiment: 3H thymidine proliferation assay, RPMI-8226; conditions: Homo sapiens, RPMI-8226, read-out: EC50, RPMI-8226, 3H thymidine method, 72 h incubation
Protocol: as §1, §2, §5

ZR-75 = experiment: 3H thymidine proliferation assay, ZR-75; conditions: Homo sapiens, ZR75, read-out: EC50, ZR-75, 3H thymidine method, 72 h incubation
Protocol: as §1, §2, §5

CEM-C1 = experiment: 3H thymidine proliferation assay, CEM-C1; conditions: Homo sapiens, CEM/C1, read-out: EC50, CEM-C1, 3H thymidine method, 72 h incubation
Protocol: as §1, §2, §5

NCI-H460 = experiment: 3H thymidine proliferation assay, NCI-H460; conditions: Homo sapiens, NCI-H460, read-out: EC50, NCI-H460, 3H thymidine method, 72 h incubation
Protocol: as §1, §2, §5

MDA-MB-231 = experiment: 3H thymidine proliferation assay, MDA-MB-231; conditions: Homo sapiens, MDA-MB-231, read-out: EC50, MDA-MB-231, 3H thymidine method, 72 h incubation
Protocol: as §1, §2, §5

HCT-15 [6] = experiment: 3H thymidine proliferation assay, HCT-15; conditions: Homo sapiens, HCT-15, read-out: EC50, HCT-15, 3H thymidine method, 72 h incubation
Protocol: as §1, §2, §5

SK-BR3 = experiment: 3H thymidine proliferation assay, SK-BR3; conditions: Homo sapiens, SK-BR-3; 3H thymidine method, 72 h incubation
Protocol: as §1, §2, §5

OVCAR8 = experiment: 3H thymidine proliferation assay, OVCAR8; conditions: Homo sapiens, OVCAR-8, read-out: EC50, OVCAR8, 3H thymidine method, 72 h incubation
Protocol: as §1, §2, §5

A2058 = experiment: 3H thymidine proliferation assay, A2058; conditions: Homo sapiens, A2058; 3H thymidine method, 72 h incubation
Protocol: as §1, §2, §5

OVCAR8/Adr = experiment: ATP luminescence proliferation assay, OVCAR8/Adr; conditions: 48 h incubation period, read-out: EC50 against the OVACAR8/Adr cell line
Protocol: as §1, §2, §4

H226 = experiment: ATP luminescence proliferation assay, H226; conditions: 72 h incubation period, read-out: EC50 against the H226 cell line
Protocol: as §1, with “The EC50 values—the concentration at which an agent inhibits or reduces cell proliferation by 50% —were determined using PRISM™ software, version 4.0 (GraphPad Software, La Jolla, Calif., USA).” left out
as §2, with “(Not all compounds were assayed against all cell lines.)” left out

OVCAR3 [7] = experiment: ATP luminescence proliferation assay, OVCAR3; conditions: ATP luminescence, OVCAR3, 48 h incubation; read-out: EC50 OVCAR3 (48 h)
Protocol: as §1, §2, §4

HCT-15 [8] = experiment: ATP luminescence proliferation assay, HCT-15; conditions: ATP luminescence, HCT-15, 72 h incubation; read-out: EC50 HCT-15 (72 h)
Protocol: as §1, §2, §4

[9] = ATP luminescence, HL-60, 48 h incubation, read-out: EC50 HL-60 (48 h)

SMILES: CC[C@H](C)[C@H](NC(=O)[C@H]1CCCCN1C)C(=O)N(COC)[C@H](C[C@@H](OC(C)=O)c1nc(C(=O)N[C@@H](Cc2ccccc2)C(=O)OC)cs1)C(C)C [(III-q)]
- EC50 (786-O [1]; Homo sapiens, 786-0, 72 h, read-out: EC50 786-O (72 h), ATP luminescence, 786-O, 72 h incubation): 104 nM
- EC50 (HL-60 [2]): 15.1 nM
- EC50 (786-O [3]): 7.61 nM
- EC50 (HL-60 [4]; Homo sapiens, HL-60, 72 h, read-out: EC50 HL-60 (72 h), ATP luminescence, HL-60, 72 h incubation): 14.3 nM

SMILES: CC[C@H](C)[C@H](NC(=O)[C@H]1CCCCN1C)C(=O)N(C)[C@H](C[C@@H](OC)c1nc(C(=O)N[C@@H](C)C(=O)N[C@@H](Cc2ccccc2)C(=O)OC)cs1)C(C)C [Compound 26a]
- EC50 (U-87 MG): 71 nM
- EC50 (SKOV3): 47 nM
- EC50 (Nomo-1): 2 nM
- EC50 (HPAC): > 100 nM
- EC50 (Raji): 20 nM
- EC50 (DMS53): > 100 nM
- EC50 (HL-60 [2]): 10 nM
- EC50 (UO-31): > 100 nM
- EC50 (PC3): > 100 nM
- EC50 (BT474): 7 nM
- EC50 (A549): > 100 nM
- EC50 (Hep3B): 36 nM
- EC50 (OVCAR3 [5]): 21 nM
- EC50 (H740): 3.2 nM
- EC50 (LNCaP): 80 nM
- EC50 (RPMI-8226): 22 nM
- EC50 (ZR-75): 56 nM
- EC50 (786-O [3]): > 100 nM
- EC50 (CEM-C1): 10 nM
- EC50 (NCI-H460): > 100 nM
- EC50 (MDA-MB-231): > 100 nM
- EC50 (HCT-15 [6]): > 100 nM
- EC50 (SK-BR3): 158 nM
- EC50 (OVCAR8): 100 nM
- EC50 (A2058): > 100 nM

SMILES: CC[C@H](C)[C@H](NC(=O)[C@H]1CCCCN1C)C(=O)N(C)[C@H](C[C@@H](OC(C)=O)c1nc(C(=O)N[C@@H](Cc2ccc(N)cc2)CC(C)C(=O)OC)cs1)C(C)C (some centres unmarked) [Compound 36a]
- EC50 (786-O [1]; ATP luminescence, 786-O, 72 h incubation, read-out: EC50 786-O (72 h)): 0.434 nM
- EC50 (OVCAR8/Adr): 17.1 nM
- EC50 (H226): 0.307 nM
- EC50 (HL-60 [4]; [9]): 0.048 nM

SMILES: CC[C@H](C)[C@H](NC(=O)[C@H]1CCCCN1C)C(=O)N(C)[C@H](C[C@@H](OC(C)=O)c1nc(C(=O)N[C@@H](Cc2ccc(N)cc2)C[C@H](C)C(=O)O)cs1)C(C)C [Compound 84a]
- EC50 (OVCAR3 [7]): 8.19 nM
- EC50 (786-O [1]; ATP luminescence, 786-O, 48 h incubation, read-out: EC50 786-O (48 h)): 6.12 nM
- EC50 (OVCAR8/Adr): > 300 nM
- EC50 (HCT-15 [8]): 138 nM
- EC50 (HL-60 [4]; [9]): 10 to 28 nM
